The subject of series [1] is splenocytes.
In a further series the test system is Leishmania donovani. The series can be described thus: Discrimination between amphotericin B treated and untreated splenic explant cultures at serial dilutions of cells. It is filed as cell-based. The settings on record: AMB 0.126 µg/mL, 48 h; for Parasite counts, Treated (AMB): mean ± SD; for Reduction in parasite burden: with reference to controls.
Series [2] deals with luciferase-transfected Leishmania donovani. The experiment in a line: Anti-leishmanial efficacy (EC50) in the ex vivo splenic explant model. It is filed as cell-based. The settings on record: Leishmania donovani.
The test system of series [3] is LUC-transfected L. donovani. The experiment in a line: Anti-leishmanial efficacy (EC50) in in vitro infected peritoneal macrophages. The format is cell-based, Leishmania donovani. The settings on record: Leishmania donovani, Peritoneal macrophage; hamster peritoneal macrophages infected in vitro, 48 h, luminometry; purchased compounds; read-out: Peritoneal Macrophages EC50 (mean±SE). Here is the method:
Macrophages from uninfected hamsters were obtained by peritoneal lavage with DMEM (Gibco) and Heparin (2 units/ml; Elkins-Sinn, Cherry Hill NJ). The cells were washed twice by centrifugation and re-suspended in culture medium composed of DMEM, 5% FBS, 1 mM sodium pyruvate (Gibco), 1X MEM amino acids solution (Sigma), 0.02% v/v/EDTA and 10 mM HEPES buffer (Cellgro). The peritoneal macrophages were adjusted to 5×10^5 cells/ml and allowed to adhere overnight at 37°C and 5% CO2 in flat bottom 96-well plates. Adherent macrophages were infected at 1∶5 ratio (cells:parasites) with stationary phase LUC-transfected L. donovani promastigotes and cultured at 37°C, 5% CO2, for 2 h. The extracellular parasites were then removed by washing with warm Dulbeco's PBS (Gibco). Infected macrophages were exposed to 2-fold serial dilutions of test compounds as described above for the ex vivo culture system. The infected macrophages were incubated for 48 hr in 5% CO2 atmosphere at 37°C. The number of surviving parasites was determined by luminometry and the effective concentration (EC50) calculated by linear regression (GraphPad Prism 5.0) as described above for the ex vivo system. The mean and standard error of the EC50 from 3 different experiments were considered as the final EC50. […] Tilorone was obtained from Hangzhou Trylead Chemical Tech (China). All compounds were dissolved in sterile dimethyl sulfoxide (analytical grade, cell culture tested; Sigma) and stored frozen at −20°C until used.

Series [4] is described as follows: Cell toxicity (CC50) in the HepG2 cell line, CellTiter-Glo. It is filed as cell-based, human. The settings on record: human. Here is the method: After 24 hours of culture at 37°C the number of viable cells was determined by quantification of the ATP present in the cell using the CellTiter-Glo luminescent Cell Viability Assay (Promega).
In series [5] the test system is splenocytes. The series can be described thus: Flow cytometry of propidium iodide stained splenocytes cultured with test compound. The settings on record: 48 hr culture period, data not shown. On the technique in general: A flow cytometer gives signals particle by particle.
Setting [6] is: 48 h, 48 h of culture, luminometry, purchased compounds dissolved in DMSO, read-out: Ex vivo model EC50 (mean±SE).

2 compounds from article PMC3039689, “Identification of Small Molecule Lead Compounds for Visceral Leishmaniasis Using a Novel Ex Vivo Splenic Explant Model System” (PLoS Neglected Tropical Diseases, 2011) can be followed below.

Read-outs that look alike come from different tables or passages of the source.

In the case of `C[C@@H]1[C@H](O)[C@@H](C)/C=C/C=C/C=C/C=C/C=C/C=C/C=C/[C@H](O[C@@H]2O[C@H](C)[C@@H](O)[C@H](N)[C@@H]2O)C[C@@H]2O[C@](O)(C[C@@H](O)C[C@@H](O)[C@H](O)CC[C@@H](O)C[C@@H](O)CC(=O)O[C@H]1C)C[C@H](O)[C@H]2C(=O)O` [Amphotericin B], in the series with splenocytes [1], the Splenocyte viability entry is on record as “no loss of splenocyte viability”. Also, the “Parasite counts, Treated (AMB)” value with Leishmania donovani (3,125 cells per well) turned out to be 0.1±0.1 photons/sec; with Leishmania donovani (6,250 cells per well), 0.2±0.0 photons/sec; in the series with Leishmania donovani (12,500 cells per well), 0.4±0.3 photons/sec; with Leishmania donovani (25,000 cells per well), 0.7±0.0 photons/sec; in the series with Leishmania donovani (50,000 cells per well), 2.5±0.5 photons/sec; with Leishmania donovani (100,000 cells per well), 8.5±0.2 photons/sec. In the series with Leishmania donovani (200,000 cells per well), the “Parasite counts, Treated (AMB)” value came to 34.8±3.7 photons/sec. For the same compound, the “Reduction in parasite burden” value in the series on Leishmania donovani (3,125 cells per well) is listed as 83.5%; with Leishmania donovani (6,250 cells per well), 86.3%; in the series with Leishmania donovani (12,500 cells per well) it was 86.2%; in the series with Leishmania donovani (25,000 cells per well) it was 86.4%; in the series on Leishmania donovani (50,000 cells per well), 82.3%; in the series on Leishmania donovani (100,000 cells per well), 83.3%. For the same compound, in the series on Leishmania donovani (200,000 cells per well), the “Reduction in parasite burden” value is on record as 76.0%. The EC50 (commonly the concentration giving half of the maximal effect) in series [2] (setting [6]) is 0.09 ± 0.03 µM; in series [2] (ex vivo model, amphotericin B present in the library (in DMSO vehicle), read-out: EC50), 10.7 ± 0.9 µM; in series [3], 0.11 ± 0.01 µM. Further, in series [4], the CC50 (in general, the concentration giving 50% cytotoxicity) at 24 h came out at 104 µM.
Turning to `CCN(CC)CCOc1ccc2c(c1)C(=O)c1cc(OCCN(CC)CC)ccc1-2` [Tilorone], the EC50 in series [2] (setting [6]) was 0.84 ± 0.47 µM; in series [2] (48 h, ex vivo splenic explant, 48 h, luminometry, at least two experiments, compound from screened library, read-out: Ex vivo model EC50 Mean), 7.7 µM; in series [3] it was 1.48 ± 0.35 µM. The CC50 at 24 h in series [4] (HepG2 cells, HepG2 cell line, 24 h, ATP luminescence, compound from screened library, read-out: HepG2 CC50 Mean) came to 46.8 µM. Besides, the Splenocyte viability result in the series on splenocytes [5] is recorded as “no loss of splenocyte viability”.
